From US9206173B2, “Heterocyclic compounds for the treatment of stress-related conditions” (OTSUKA PHARMACEUTICAL CO., LTD., priority 2009, dated 2015)
pIC50, pKi: −log10 of the molar value. Structures can show the parent of a compound that is named as a salt.

How the values were obtained:
human GPR10 [1] = target: T1, human GPR10 (Homo sapiens (Human), UniProt P49683); experiment: Inhibitory activity on binding of [3H]-PrRP to GPR10 (HEK 293 cell membrane fraction); conditions: [3H]-PrRP 1 nM, human GPR10-expressing HEK 293 cell membrane fraction; Ki from IC50 by Cheng-Prussoff formula
Method in brief: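 Competition with [3H]-PrRP (1 nM final) for membranes from human GPR10-expressing HEK293 cells, 90 min at room temperature in HEPES/EDTA buffer pH 7.4; filtration and scintillation counting.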

human GPR10 [2] = target: T1, human GPR10; experiment: Antagonistic activity on PrRP-induced intracellular calcium mobilization in human GPR10-expressing HEK293 cells; format: cell-based; conditions: PrRP 1 nM-induced intracellular calcium mobilization, Fluo-8
Method: Pharmacological Test 2 Antagonistic Activity on GPR10 Using Human GPR10-Expressing HEK293 Cells.
Antagonistic activity of test compounds on PrRP-induced intracellular calcium mobilization was evaluated using GPR10-expressing HEK293 cells.
HEK293 cells expressing human GPR10 were maintained in Dulbecco's Modified Eagles' medium supplemented with 10% fetal bovine serum, 1% penicillin-streptomycin and 20 mM HEPES at 37° C. in a 5% CO2 incubator. GPR10-expressing HEK293 cells were placed in poly-D-lysine coated 96-well culture plates and cultured for 18-24 hr before the test at a density of 3×10^4 cells/well. […] The cells were incubated with test compounds for 15 min at room temperature, and then PrRP (the final concentration, 1 nM) was added into the medium. The changes in intracellular calcium-dependent fluorescence were monitored using a fluorescence imaging plate reader (FDSS3000, Hamamatsu Photonics K.K.). Fluo-8 fluorescence was measured with excitation at 490 nm and emission at 520 nm. The calcium-dependent fluorescence intensity was calculated by subtracting basal intensity (average intensity for 30 sec before agonist stimulation) from peak intensity for 60 sec after PrRP-stimulation, and then IC50 values were determined by nonlinear curve-fitting program, GraphPad Prism 5.

T1 sequence (P49683 whole entry): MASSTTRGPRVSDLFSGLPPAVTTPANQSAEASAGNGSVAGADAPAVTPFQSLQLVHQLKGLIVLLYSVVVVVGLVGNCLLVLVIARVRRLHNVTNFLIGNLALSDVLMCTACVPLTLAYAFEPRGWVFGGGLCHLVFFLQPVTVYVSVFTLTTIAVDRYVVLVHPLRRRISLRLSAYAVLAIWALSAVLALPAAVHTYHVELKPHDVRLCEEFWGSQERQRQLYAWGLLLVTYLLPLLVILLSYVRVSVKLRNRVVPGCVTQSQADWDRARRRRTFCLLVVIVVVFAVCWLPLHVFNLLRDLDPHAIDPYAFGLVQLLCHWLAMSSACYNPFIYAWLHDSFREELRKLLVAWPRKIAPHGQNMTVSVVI

Row | Compound | melting point [°C] | pKi (human GPR10 [1]) | pIC50 (human GPR10 [2])
1 | CN(C)n1c(NCc2ccc(C(F)(F)F)c(F)c2)nc2c(c1=O)CN(C(=O)c1ccc(Cl)cc1)CC2.Cl | 122 to 124 |  | 
2 | C[C@H](Nc1nc2c(c(=O)n1N(C)C)CN(C(=O)c1ccc(Cl)cc1)CC2)c1ccc(Cl)cc1.Cl [Example 8, 6-(4-chlorobenzoyl)-2-(S)-[1-(4-chlorophenyl)ethylamino]-3-dimethylamino-5,6,7,8-tetrahydropyrido[4,3-d]pyrimidin-4-(3H)-one hydrochloride] | 121 to 123 | 7.60 | 6.60
3 | CC[C@@H](Nc1nc2c(c(=O)n1OC)CN(C(=O)c1ccc(Cl)cc1)CC2)c1ccc(Cl)cc1.Cl | 127 to 129.5 |  | 
4 | CCC(Nc1nc2c(c(=O)n1OC)CN(C(=O)c1ccc(Cl)cc1)CC2)c1ccc(Cl)cc1.Cl (stereo not shown) [Example 2421, 6-(4-chlorobenzoyl)-2-[1-(4-chlorophenyl)propylamino]-3-methoxy-5,6,7,8-tetrahydro-3H-pyrido[4,3-d]pyrimidin-4-one hydrochloride] | 118.1 to 123.7 | 7.36 | 5.80
5 | C#CCCn1c(N[C@@H](C)c2ccc(C(F)(F)F)cc2)nc2c(c1=O)CN(C(=O)c1ccc(C#N)cc1F)CC2 [Example 2435, 4-{3-(3-butynyl)-4-oxo-2-[(S)-1-(4-trifluoromethylphenyl)ethylamino]-3,5,7,8-tetrahydro-4H-pyrido[4,3-d]pyrimidine-6-carbonyl}-3-fluorobenzonitrile] |  | 8.70 | 7.17
6 | CCOn1c(N[C@H](C)c2ccc(C(F)(F)F)cc2)nc2c(c1=O)CN(C(=O)c1ccc(C#N)cc1F)CC2 [Example 95] |  | 8.30 | 6.64
7 | C[C@H](Nc1nc2c(c(=O)n1N(C)C)CN(C(=O)c1ccc(C#N)cc1F)CC2)c1ccc(C(F)(F)F)cc1 [Example 5, 6-(4-cyano-2-fluorobenzoyl)-3-dimethylamino-2-(S)-{1-[4-(trifluoromethyl)phenyl]ethylamino}-5,6,7,8-tetrahydropyrido[4,3-d]pyrimidin-4-(3H)-one hydrochloride] |  | 8.10 | 7.34
8 | C[C@H](Nc1nc2c(c(=O)n1N(C)C)CN(C(=O)c1c(F)cc(F)cc1F)CC2)c1ccc(C(F)(F)F)cc1 [Example 2484, 3-dimethylamino-6-(2,4,6-trifluorobenzoyl)-2-[(S)-1-(4-trifluoromethylphenyl)ethylamino]-5,6,7,8-tetrahydro-3H-pyrido[4,3-d]pyrimidin-4-one hydrochloride] |  | 8.22 | 6.67
9 | C[C@H](Nc1nc2c(c(=O)n1N(C)C)CN(C(=O)c1ccc(Cl)cc1)CC2)c1ccc(C(F)(F)F)cc1.Cl [Example 6, 6-(4-chlorobenzoyl)-3-dimethylamino-2-(S)-{1-[4-(trifluoromethyl)phenyl]ethylamino}-5,6,7,8-tetrahydropyrido[4,3-d]pyrimidin-4-(3H)-one hydrochloride] | 116 to 118 | 7.77 | 6.73
10 | CC#CCn1c(N[C@@H](C)c2ccc(C(F)(F)F)cc2)nc2c(c1=O)CN(C(=O)c1ccc3c(c1)CCC(=O)N3)CC2 [Example 2412, 3-(2-butynyl)-6-(2-oxo-1,2,3,4-tetrahydro-quinoline-6-carbonyl)-2-[(S)-1-(4-trifluoromethylphenyl)ethylamino]-5,6,7,8-tetrahydro-3H-pyrido[4,3-d]pyrimidin-4-one hydrochloride] |  | 8.10 | 6.59
11 | CCOn1c(N[C@H](C)c2ccc(C(F)(F)F)cc2)nc2c(c1=O)CN(C(=O)c1ccc(Cl)cc1)CC2 [Example 86] |  | 7.60 | 5.43
12 | COn1c(N[C@@H](C)c2ccc(C(F)(F)F)cc2)nc2c(c1=O)CN(C(=O)c1ccc(Cl)s1)CC2 [Example 2405, 6-(5-chlorothiophene-2-carbonyl)-3-methoxy-2-[(S)-1-(4-trifluoromethylphenyl)ethylamino]-5,6,7,8-tetrahydro-3H-pyrido[4,3-d]pyrimidin-4-one] |  | 7.82 | 5.06
13 | C#CCn1c(N[C@@H](C)c2ccc(Cl)cc2)nc2c(c1=O)CN(C(=O)c1ccc(Cl)cc1)CC2 [Example 3, 6-(4-chlorobenzoyl)-3-propargyl-2-(S)-{1-[4-chlorophenyl]ethylamino}-5,6,7,8-tetrahydropyrido[4,3-d]pyrimidin-4-(3H)-one] |  | 7.38 | 5.76
14 | C[C@H](Nc1nc2c(c(=O)n1N1CCOCC1)CN(C(=O)c1ccc(C#N)cc1)CC2)c1ccc(C(F)(F)F)cc1 [Example 2432, 4-{3-morpholin-4-yl-4-oxo-2-[(S)-1-(4-trifluoromethylphenyl)ethylamino]-3,5,7,8-tetrahydro-4H-pyrido[4,3-d]pyrimidine-6-carbonyl}benzonitrile hydrochloride] |  | 7.44 | 6.62
15 | COn1c(N[C@@H](C)c2ccc(C(F)(F)F)cc2)nc2c(c1=O)CN(C(=O)c1ccc(C)s1)CC2 [Example 2404, 3-methoxy-6-(5-methyl-thiophene-2-carbonyl)-2-[(S)-1-(4-trifluoromethylphenyl)ethylamino]-5,6,7,8-tetrahydro-3H-pyrido[4,3-d]pyrimidin-4-one] |  | 8.00 | 5.95
16 | CCOn1c(N[C@H](C)c2ccc(C(F)(F)F)cc2)nc2c(c1=O)CN(C(=O)c1cc3cccnc3s1)CC2 [Example 121] |  | 7.77 | 5.77
17 | CC#CCn1c(N[C@@H](C)c2ccc(C(F)(F)F)cc2)nc2c(c1=O)CN(C(=O)c1cc3ccccn3n1)CC2 [Example 2411, 3-(2-butynyl)-6-(pyrazolo[1,5-a]pyridine-2-carbonyl)-2-[(S)-1-(4-trifluoromethylphenyl)ethylamino]-5,6,7,8-tetrahydro-3H-pyrido[4,3-d]pyrimidin-4-one hydrochloride] |  | 7.70 | 6.11
18 | COn1c(N[C@@H](C)c2ccc(C(F)(F)F)cc2)nc2c(c1=O)CN(C(=O)COc1ccc(Cl)cc1)CC2 [Example 2389, 6-[2-(4-chlorophenoxy)acetyl]-3-methoxy-2-[(S)-1-(4-trifluoromethylphenyl)ethylamino]-5,6,7,8-tetrahydro-3H-pyrido[4,3-d]pyrimidin-4-one] |  | 8.10 | 6.17
